Reference: ChEMBL document CHEMBL3992569, “Opioid Receptor Activity and Analgesic Potency of DPDPE Peptide Analogues Containing a Xylene Bridge” (ACS Med Chem Lett, 2017)
Activity calls are given as the source filed them. No cut-off for these calls is given here.

What was measured:
Mus musculus [1] = experiment: Analgesic activity in CD-1 mouse model of formalin-induced pain assessed as increase in latency to respond with hind paw lick or biting at 150 nmol/mouse, sc administered 15 mins prior to formalin injection measured up to 40 mins post dose; format: functional, organism-based
Mus musculus [2] = experiment: Antinociceptive activity in CD-1 mouse model of thermal-induced nociception assessed as increase in latency to respond with hind paw lick or jumping at 23 nmol/mouse, icv measured 15 to 60 mins post dose by hot plate test relative to control; format: functional
Mus musculus [3] = experiment: Antinociceptive activity in CD-1 mouse model of thermal-induced nociception assessed as increase in latency to tail withdrawal at 23 nmol/mouse, icv measured 15 to 60 mins post dose by tail flick test relative to control; format: functional
Mus musculus [4] = experiment: Antinociceptive activity in CD-1 mouse model of thermal-induced nociception assessed as increase in latency to respond with hind paw lick or jumping at 23 nmol/mouse, icv measured 45 mins post dose by hot plate test; format: functional
Mus musculus [5] = experiment: Antinociceptive activity in CD-1 mouse model of thermal-induced nociception assessed as increase in latency to tail withdrawal at 23 nmol/mouse, icv measured 45 mins post dose by tail flick test; format: functional

SMILES	Activity (Mus musculus [1])	MPE (Mus musculus [2])	MPE (Mus musculus [3])	Activity (Mus musculus [4])	Activity (Mus musculus [5])
CC1(C)SCc2cccc(c2)CSC(C)(C)[C@@H](NC(=O)[C@@H](N)Cc2ccc(O)cc2)C(=O)NCC(=O)N[C@@H](Cc2ccccc2)C(=O)N[C@H]1C(=O)O.O=C(O)C(F)(F)F	Active	>60%	>60%	–	–
CC1(C)SSC(C)(C)[C@@H](NC(=O)[C@@H](N)Cc2ccc(O)cc2)C(=O)NCC(=O)N[C@@H](Cc2ccccc2)C(=O)N[C@H]1C(=O)O	inactive	–	–	Active	Active
